By IC50 is commonly meant the concentration needed to halve the response being measured.

What all share (assay type): biochemical
In experiment [1] the target is Recombinant human Syk (amino acids 342-635), GST-Syk kinase fusion protein (Homo sapiens (Human), UniProt P43405). The experiment in a line: Syk kinase test (Kinase Glo luminescence). The following applies: Table 1; read-out: SYK-inhibition IC50-value. As for the experimental part:
(§1) The output file of the reader is a csv file that contains the well number and measured relative light units (RLU). For data evaluation and calculation, the measurement of the negative control was set as 100% ctrl and the measurement of the positive control was set as 0% ctrl. Based on this values the % value for the measurement of each substance concentration was calculated using an Assay Explorer software (Accelrys). Normally, the % ctrl values calculated are between 0% and 100% values but may also occur outside these limits in individual cases based on variability or compound characteristics. The IC50 values were calculated from the % ctrl values using Assay Explorer software. Calculation:[y=(a−d)/(1+(x/c)^b)+d] a=low value, d=high value; x=conc M; c=IC50 M; b=hill; y=% ctrl.

Experiment [2] has as its target Recombinant human Aurora B (amino acids 1-344) (Homo sapiens (Human), UniProt Q96GD4). As to the kind of experiment: Aurora B kinase test (ADP Glo luminescence). The following applies: Table 1; read-out: AURB-inhibition IC50-value. How it is done: The activity of the Aurora B kinase protein was determined using the ADP Glo® Luminescence Kinase test (Promega; V9103X).
Serial Dilution is done in 1:10 steps in 100% DMSO.
Then 20 μl Kinase detection mix (Detection Buffer #V913B Promega; Kinase Detection Substrate #V914B Promega) were added and incubated for 40 minutes at room temperature.
as §1, with “measured RLU.” for “measured relative light units (RLU).”, “as 0%” for “as 100%”, “as 100%” for “as 0%”, “software. Calculation: [y=(a−d)/(1+(x/c)^b)+d],” for “software. Calculation:[y=(a−d)/(1+(x/c)^b)+d]”
For orientation: ADP-Glo first removes unused ATP, then detects ADP through luciferase.

Experiment [3] has as its target FLT3 (Homo sapiens (Human), UniProt P36888). As to the kind of experiment: FLT3 kinase test (Z'-LYTE). Particulars: Table 1; read-out: FLT3-inhibition IC50-value. How it is done: The activity of FLT3 is measured using the Z′-LYTETM assay technology from Invitrogen (#PV3191)
The reaction is started by addition of 2.5 μl of the 4×ATP solution.
Positive controls are reaction mixtures containing no test compound; negative controls (blanks) are reaction mixtures containing no kinase. As a further control, the phosphopeptide solution is added to wells without kinase (=100% phosphorylation control).
The reaction is performed for 1 h at room temperature before 5 μl of the development solution is added. After a further incubation for 1 h at room temperature 5 μl of the stop reagent is added.
The output text file is evaluated in an “MS-Excel—VB-Makro” and “GraphPadPrism” (Version 5) (GraphPad Software Inc.) is used to calculate the results. Data for the inhibition of FLT3 are reported in M. data for the inhibition of the protease are reported in % CTL.

Recombinant human Aurora B (amino acids 1-344), sequence (Q96GD4 whole entry, the tested form may be a part): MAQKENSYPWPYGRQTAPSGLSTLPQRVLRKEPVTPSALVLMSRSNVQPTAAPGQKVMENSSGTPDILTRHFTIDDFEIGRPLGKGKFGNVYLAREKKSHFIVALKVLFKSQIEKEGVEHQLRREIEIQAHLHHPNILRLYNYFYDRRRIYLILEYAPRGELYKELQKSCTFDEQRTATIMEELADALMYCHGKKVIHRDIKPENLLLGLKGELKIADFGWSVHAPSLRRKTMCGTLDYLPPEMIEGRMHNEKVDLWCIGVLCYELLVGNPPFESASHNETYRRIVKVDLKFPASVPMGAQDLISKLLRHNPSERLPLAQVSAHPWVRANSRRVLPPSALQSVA
FLT3, sequence (P36888 27-993): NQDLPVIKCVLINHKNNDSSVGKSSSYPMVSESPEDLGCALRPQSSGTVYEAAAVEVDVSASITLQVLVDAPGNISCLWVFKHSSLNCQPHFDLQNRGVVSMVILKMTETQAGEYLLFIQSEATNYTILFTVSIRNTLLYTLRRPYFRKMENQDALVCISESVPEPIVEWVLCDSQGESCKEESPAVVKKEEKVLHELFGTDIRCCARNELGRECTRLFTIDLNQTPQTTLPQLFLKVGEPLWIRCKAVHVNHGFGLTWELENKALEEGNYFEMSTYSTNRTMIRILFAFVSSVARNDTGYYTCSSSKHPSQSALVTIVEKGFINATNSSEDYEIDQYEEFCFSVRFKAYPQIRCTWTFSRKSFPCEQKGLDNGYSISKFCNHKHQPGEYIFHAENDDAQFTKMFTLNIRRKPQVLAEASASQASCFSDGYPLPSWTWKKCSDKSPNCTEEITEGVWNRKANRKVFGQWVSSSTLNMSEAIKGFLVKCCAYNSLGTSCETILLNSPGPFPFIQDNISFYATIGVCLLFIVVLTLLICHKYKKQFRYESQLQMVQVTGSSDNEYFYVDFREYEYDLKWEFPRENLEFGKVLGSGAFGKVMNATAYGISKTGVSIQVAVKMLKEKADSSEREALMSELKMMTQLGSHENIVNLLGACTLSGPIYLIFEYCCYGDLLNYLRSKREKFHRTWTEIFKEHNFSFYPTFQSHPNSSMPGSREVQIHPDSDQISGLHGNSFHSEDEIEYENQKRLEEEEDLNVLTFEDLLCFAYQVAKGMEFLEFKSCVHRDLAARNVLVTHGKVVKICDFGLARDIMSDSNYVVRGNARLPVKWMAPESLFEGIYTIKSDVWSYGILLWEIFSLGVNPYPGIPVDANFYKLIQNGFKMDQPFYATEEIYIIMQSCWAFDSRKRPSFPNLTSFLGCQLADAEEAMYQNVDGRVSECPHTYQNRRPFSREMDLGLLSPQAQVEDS

With `C[C@@H](Oc1nc(-c2ccc3c(c2)CCN(C)CC3)cc2nn(C)cc12)[C@H]1CNC(=O)C1` [Example 55, (4R)-4-[(1R)-1-[2-methyl-6-(3-methyl-1,2,4,5-tetrahydro-3-benzazepin-7-yl)pyrazolo-[4,3-c]pyridin-4-yl]oxyethyl]-pyrrolidin-2-one], the IC50 in experiment [1] is 0.0436 µM; in experiment [2], over 50 µM; in experiment [3], 3.07 µM.

In the case of `COCCn1cc(-c2cc3nn(C)cc3c(O[C@H](C)[C@H]3CNC(=O)C3)n2)cn1` [Example 57, (4R)-4-[(1R)-1-[6-[1-(2-methoxyethyl)pyrazol-4-yl]-2-methyl-pyrazolo[4,3-c]pyridin-4-yl]oxyethyl]pyrrolidin-2-one], the IC50 in experiment [1] was 0.0901 µM; in experiment [2], over 50 µM; in experiment [3], 32 µM.

For `CCn1cc(-c2cc3nn(C)cc3c(O[C@H](C)[C@H]3CNC(=O)C3)n2)cn1` [Example 58, (4R)-4-[(1R)-1-[6-(1-ethylpyrazol-4-yl)-2-methyl-pyrazolo[4,3-c]pyridin-4-yl]oxyethyl]pyrrolidin-2-one], the half-inhibitory concentration (IC50) in experiment [1] is 0.0366 µM; in experiment [2], over 50 µM; in experiment [3], 17.1 µM.

As for `C[C@@H](Oc1nc(-c2ccc(C(F)(F)F)cc2)cc2nn(C)cc12)[C@H]1CNC(=O)C1` [Example 60, (4R)-4-[(1R)-1-[2-methyl-6-[4-(trifluoromethyl)phenyl]-pyrazolo[4,3-c]pyridin-4-yl]-oxyethyl]pyrrolidin-2-one], the 50% inhibitory concentration (IC50) turned out to be 0.145 µM in experiment [1], 34.7 µM in experiment [2] and 9.75 µM in experiment [3].

On to `C[C@@H](Oc1nc(-c2cnn(C)c2)cc2nn(C)cc12)[C@H]1CNC(=O)C1` [Example 63, (4R)-4-[(1R)-1-[2-methyl-6-(1-methylpyrazol-4-yl)pyrazolo[4,3-c]pyridin-4-yl]oxyethyl]pyrrolidin-2-one], for which the values for the IC50 in experiment [1], in experiment [2] and in experiment [3] were 0.0473 µM, over 50 µM and 13.2 µM, respectively.

As to `C[C@@H](Oc1nc(-c2cnn(C3CCOCC3)c2)cc2nn(C)cc12)[C@H]1CNC(=O)C1` [Example 64, (4R)-4-[(1R)-1-[2-methyl-6-(1-tetrahydropyran-4-yl-pyrazol-4-yl)pyrazolo[4,3-c]pyridin-4-yl]oxyethyl]-pyrrolidin-2-one], the results for the IC50 in experiment [1], in experiment [2] and in experiment [3] were 0.0258 µM, over 50 µM and 21.6 µM, respectively.

`CC(C)n1cc(-c2cc3nn(C)cc3c(O[C@H](C)[C@H]3CNC(=O)C3)n2)cn1` [Example 65, (4R)-4-[(1R)-1-[6-(1-iso-propylpyrazol-4-yl)-2-methyl-pyrazolo[4,3-c]pyridin-4-yl]-oxyethyl]pyrrolidin-2-one]: the half-inhibitory concentration (IC50) in experiment [1] was 0.0211 µM; in experiment [2] it was over 50 µM; in experiment [3], 14.8 µM.

Turning to `C[C@@H](Oc1nc(-c2ccc(N3CCOCC3)nc2)cc2nn(C)cc12)[C@H]1CNC(=O)C1` [Example 66, (4R)-4-[(1R)-1-[2-methyl-6-(6-morpholino-3-pyridyl)-pyrazolo[4,3-c]pyridin-4-yl]oxyethyl]pyrrolidin-2-one], the figures for the IC50 in experiment [1], in experiment [2] and in experiment [3] were 0.0385 µM, over 50 µM and 4.44 µM, respectively.

For the molecule `Cc1nn(C)cc1-c1cc2nn(C)cc2c(O[C@H](C)[C@H]2CNC(=O)C2)n1` [Example 68, (4R)-4-[(1R)-1-[6-(1,3-dimethylpyrazol-4-yl)-2-methyl-pyrazolo[4,3-c]pyridin-4-yl]oxyethyl]pyrrolidin-2-one], the half-maximal inhibitory concentration (IC50) in experiment [1] is 0.0652 µM; in experiment [2], over 50 µM; in experiment [3], 22.4 µM.

Regarding `Cc1c(-c2cc3nn(C)cc3c(O[C@H](C)[C@H]3CNC(=O)C3)n2)cnn1C` [Example 69, (4R)-4-[(1R)-1-[6-(1,5-dimethylpyrazol-4-yl)-2-methyl-pyrazolo[4,3-c]pyridin-4-yl]oxyethyl]pyrrolidin-2-one], the IC50 in experiment [1] is 0.197 µM; in experiment [2], over 50 µM; in experiment [3] it was 45.1 µM.

Take `C[C@@H](Oc1nc(-c2cnn([C@H]3CCOC3)c2)cc2nn(C)cc12)[C@H]1CNC(=O)C1` [Example 70, (4R)-4-[(1R)-1-[2-methyl-6-[1-[(3S)-tetrahydrofuran-3-yl]pyrazol-4-yl]pyrazolo[4,3-c]pyridin-4-yl]oxyethyl]-pyrrolidin-2-one]: the results for the IC50 in experiment [1], in experiment [2] and in experiment [3] were 0.0345 µM, over 50 µM and 17 µM, respectively.

On to `Cc1cc(-c2cc3nn(C)cc3c(O[C@H](C)[C@H]3CNC(=O)C3)n2)ccc1N1CCCS1(=O)=O` [Example 71, (4R)-4-[(1R)-1-[6-[4-(1,1-dioxo-1,2-thiazolidin-2-yl)-3-methyl-phenyl]-2-methyl-pyrazolo[4,3-c]pyridin-4-yl]oxyethyl]pyrrolidin-2-one], for which the values for the IC50 in experiment [1], in experiment [2] and in experiment [3] were 0.015 µM, over 50 µM and 7.65 µM, respectively.

For the molecule `C[C@@H](Oc1nc(-c2ccc3c(c2)CN(C)CC3)cc2nn(C)cc12)[C@H]1CNC(=O)C1` [Example 75, (4R)-4-[(1R)-1-[2-methyl-6-(2-methyl-3,4-dihydro-1H-isoquinolin-7-yl)pyrazolo[4,3-c]pyridin-4-yl]oxyethyl]-pyrrolidin-2-one], the IC50 in experiment [1] worked out at 0.0998 µM; in experiment [2] it was 8.54 µM; in experiment [3], 1.59 µM.

As to `C[C@@H](Oc1nc(-c2cnn(CCC(F)(F)F)c2)cc2nn(C)cc12)[C@H]1CNC(=O)C1` [Example 76, (4R)-4-[(1R)-1-[2-methyl-6-[1-(3,3,3-trifluoropropyl)-pyrazol-4-yl]pyrazolo[4,3-c]pyridin-4-yl]oxyethyl]-pyrrolidin-2-one], the results for the IC50 in experiment [1], in experiment [2] and in experiment [3] were 0.0583 µM, 46.2 µM and 14.8 µM, respectively.

For the molecule `C[C@@H](Oc1nc(-c2cc3cccc(Cl)c3[nH]2)cc2nn(C)cc12)[C@H]1CNC(=O)C1` [Example 77, (4R)-4-[(1R)-1-[6-(7-chloro-1H-indol-2-yl)-2-methyl-pyrazolo[4,3-c]pyridin-4-yl]oxyethyl]pyrrolidin-2-on], the IC50 in experiment [1] was determined as 0.0498 µM; in experiment [2] it was 43.4 µM; in experiment [3], 3.75 µM.

Consider `C[C@@H](Oc1nc(-c2cnn(C3CC3)c2)cc2nn(C)cc12)[C@H]1CNC(=O)C1` [Example 78, (4R)-4-[(1R)-1-[6-(1-cyclopropylpyrazol-4-yl)-2-methyl-pyrazolo[4,3-c]pyridin-4-yl]oxyethyl]pyrrolidin-2-one], for which the IC50 in experiment [1] is 0.0359 µM; in experiment [2], over 50 µM; in experiment [3] it was 22 µM.

(Values after US9914735B2, “Heteroaryl Syk inhibitors” (Boehringer Ingelheim International GmbH, priority 2014, dated 2018).)
